{
  "source": "patent US5290698A",
  "about": "“Streptoverticillium ferm P-10489 which produces antitumor agent BE-13793C” (Banyu Pharmaceutical Co., Ltd., priority 1989, dated 1994)",
  "key": {"P388/S tumor cells": {"tested_on": "P388/S tumor cells", "assay": "In vitro antitumor assay, growth inhibition of P388/S tumor cells (72 h, Coulter counter)", "type": "cell-based", "conditions": "Mus musculus, 37° C., 5% CO2, 72 hours, read-out: concentration (IC50) causing 50% inhibition on P388/S tumor cell growth", "description": "(§1) In vitro activity tests were performed for evaluating the inhibitory activities of the antitumor substance BE-13793C on mouse tumor cells. In the in vitro antitumor assay using P388 tumor cells, the test substance was first dissolved in dimethyl sulfoxide and the obtained solution was serially diluted with a cell culture medium containing 20% of dimethyl sulfoxide (20% v/v DMSO-RPMI-1640 medium). Then, 2 μl of the dilution was added to 200 μl of a cell culture medium (10% v/v fetal calf serum-RPMI-1640 medium) containing 2×10^4 or 3×10^4 tumor cells. Next, each mixture was incubated at 37° C. under 5% CO2 for 72 hours. The viable cells were then counted with a Coulter counter. The result was compared with the control data. […] The concentration (IC50) of the antitumor substance BE-13793C causing 50% inhibition on P388/S tumor cell growth was 0.7 μM, while that on P388/V cell growth was 0.7 μM.\n(§2) The P388/S cells are commonly employed mouse leukemia cells while the P388/V cells are a strain of P388 leukemia cells which have acquired resistance to the anticancer agent vincristine."}, "P388/V cells": {"tested_on": "P388/V cells", "assay": "In vitro antitumor assay, growth inhibition of vincristine-resistant P388/V cells", "type": "cell-based", "conditions": "Mus musculus, 37° C., 5% CO2, 72 hours, read-out: concentration (IC50) causing 50% inhibition on P388/V cell growth", "description": "as §1, §2"}, "P388/A cells": {"tested_on": "P388/A cells", "assay": "Growth inhibition of adriamycin-resistant P388/A cells", "type": "cell-based", "conditions": "Mus musculus, read-out: 50% inhibitory concentration (IC50) on growth of P388/A cells", "description": "as §1\nFurthermore, the antitumor substance BE-13793C inhibited the growth of P388/A cells, which had acquired resistance to the anticancer agent adriamycin, and the 50% inhibitory concentration (IC50) thereof was 1.0 μM."}, "Ehrlich ascites cancer": {"tested_on": "Ehrlich ascites cancer", "assay": "Effect on Ehrlich ascites cancer transplanted in mice (survival)", "type": "in vivo, mouse", "conditions": "once a day 1st to 10th day; for MST (mean survival time): female ICR mice, control 13.1 day; for MST % T/C ((treated MST/control MST) × 100): ≥125 = marked antitumor effect", "source_text": "In this assay, 10^6 (lethal dose) tumor cells per mouse were intraperitoneally administered. Then the test substance was serially diluted and intraperitoneally administered.\n^1 Inoculum: 10^6 Ehrich ascites cancer cells, intraperitoneal.\n^2 Host: Female ICR mice.\n^3 Treatment schedule: BE13793C was intraperitoneally administered\nonce a day from the 1st to the 10th day.\n^4 MST: Mean survival time (in days).\n^5 % T/C: (Treated MST/control MST) × 100.\n^6 Criteria: When % T/C ≥ 125, the test compound was considere\nto produce a marked antitumor effect at the particular dose."}, "female ICR mice": {"tested_on": "female ICR mice", "assay": "Acute toxicity on female ICR mice", "type": "in vivo, mouse", "conditions": "100 mg/kg i.p. once, on the 5th day"}, "Solubility": {"assay": "Solubility", "type": "physicochemical"}, "[1]": {"assay": "Acidity/neutrality/basicity", "type": "physicochemical"}},
  "data": [
    {"smiles": "O=C1NC(=O)c2c1c1c3cccc(O)c3[nH]c1c1[nH]c3c(O)cccc3c21", "note": "[BE-13793C]", "values": [
      {"measurement": "IC50", "setting": "P388/S tumor cells", "result": 700, "unit": "nM"},
      {"measurement": "IC50", "setting": "P388/V cells", "result": 700, "unit": "nM"},
      {"measurement": "IC50", "setting": "P388/A cells", "result": 1000, "unit": "nM"},
      {"measurement": "MST (mean survival time)", "setting": "Ehrlich ascites cancer; 8 mg/kg/injection i.p.", "result": 16.0, "unit": "days"},
      {"measurement": "MST % T/C ((treated MST/control MST) × 100)", "setting": "Ehrlich ascites cancer; 8 mg/kg/injection i.p.", "result": 122, "unit": "%"},
      {"measurement": "MST (mean survival time)", "setting": "Ehrlich ascites cancer; 20 mg/kg/injection i.p.", "result": 26.4, "unit": "days"},
      {"measurement": "MST % T/C ((treated MST/control MST) × 100)", "setting": "Ehrlich ascites cancer; 20 mg/kg/injection i.p.", "result": 202, "unit": "%"},
      {"measurement": "MST (mean survival time)", "setting": "Ehrlich ascites cancer; 50 mg/kg/injection i.p.", "result": 28.6, "unit": "days"},
      {"measurement": "MST % T/C ((treated MST/control MST) × 100)", "setting": "Ehrlich ascites cancer; 50 mg/kg/injection i.p.", "result": 218, "unit": "%"},
      {"measurement": "death (acute toxicity)", "setting": "female ICR mice", "result": "no death was found"},
      {"measurement": "solubility in dimethyl sulfoxide", "setting": "Solubility; dimethyl sulfoxide", "result": "highly soluble"},
      {"measurement": "solubility in methanol", "setting": "Solubility; methanol", "result": "soluble"},
      {"measurement": "solubility in tetrahydrofuran", "setting": "Solubility; tetrahydrofuran", "result": "highly soluble"},
      {"measurement": "solubility in water", "setting": "Solubility; water", "result": "hardly soluble"},
      {"measurement": "Acidity/neutrality/basicity", "setting": "[1]", "result": "acidic"}
    ]}
  ]
}
